Experimental data published in ChEMBL document CHEMBL1153714, “Isolation and characterization of tirandamycins from a marine-derived Streptomyces sp” (2009).
Converted amounts (≈) assume the structure as drawn.

Test system: Enterococcus faecalis
Test: Antibacterial activity against vancomycin-resistant Enterococcus faecalis after 16 hrs by microtiter plate assay
Type: functional

Compound	MIC [µM]
CC(/C=C/C(O)=C1/C(=O)CNC1=O)=C\[C@@H](C)[C@H]1O[C@@]2(C)O[C@H](C(=O)[C@H]3O[C@]32CO)[C@@H]1C [TIRANDAMYCIN B]	100 (≈ 43.3 µg/mL)
CC1=CC(=O)[C@H]2O[C@]1(C)O[C@H]([C@H](C)/C=C(C)/C=C/C(O)=C1/C(=O)CNC1=O)[C@H]2C [TIRANDAMYCIN D]	> 9
CC(/C=C/C(O)=C1/C(=O)CNC1=O)=C\[C@@H](C)[C@H]1O[C@@]2(C)O[C@H](C(=O)[C@H]3O[C@]32C)[C@@H]1C [TIRANDAMYCIN A]	2.25 (≈ 0.939 µg/mL)
CC1=CC[C@H]2O[C@]1(C)O[C@H]([C@H](C)/C=C(C)/C=C/C(O)=C1/C(=O)CNC1=O)[C@H]2C [TIRANDAMYCIN C]	110 (≈ 42.6 µg/mL)
